Measured values: ChEMBL document CHEMBL3244210, “Experimental antiulcer drugs. 1. Indole-1-alkanamides and pyrrole-1-alkanamides” (J Med Chem, 1977)
One block for each compound: values may come before it. Calls of active or inactive are those of the source. The calls are words filed in the database; no cut-off is given here.

Columns and labels:
Rattus norvegicus [1] = test: Antiulcer activity in po dosed albino rat pyloric ligation model assessed as inhibition of gastric secretion administered as single dose 1 to 24 hrs prior to ligation; type: functional, organism-based; settings: Stomach
Rattus norvegicus [2] = test: Antiulcer activity in sc dosed albino rat pyloric ligation model assessed as inhibition of gastric secretion administered as single dose 1 to 24 hrs prior to ligation; type: functional, organism-based; settings: Stomach
Mus musculus = test: Anticholinergic activity in mouse assessed as mydriasis at 100 mg/kg, po measured after 1 to 24 hrs post dose; type: ADME, organism-based; parameters: dose 100 mg/kg, route oral; settings: in vivo
[3] = Toxicity in histamine-induced guinea pig assessed as change in rate of beating in right atrium at 10 ' -5 to 5 x 10' -5 M after 5 mins; type: tissue-based, Cavia porcellus, Cardiac atrium
[4] = Drug excretion in rat urine administered as single dose 1 to 24 hrs prior to ligation; type: ADME; settings: in vivo
Rattus norvegicus [5] = test: Antiulcer activity in albino rat pyloric ligation model assessed as elevation of gastric pH at 100 mg/kg, po administered as single dose 1 hr prior ligation (Rvb =1.1 no_unit); type: functional, Stomach
Rattus norvegicus [6] = test: Antiulcer activity in albino rat pyloric ligation model assessed as inhibition of total acid output at 100 mg/kg, po administered as single dose 1 hr prior ligation relative to control; type: functional
Rattus norvegicus [7] = test: Antiulcer activity in albino rat pyloric ligation model assessed as inhibition of gastric volume at 100 mg/kg, po administered as single dose 1 hr prior ligation relative to control; type: functional; settings: Stomach
Homo sapiens [8] = species on record: Homo sapiens; test: Antagonist activity at histamine receptor (unknown origin) assessed as shift in histamine-induced response at 5 x 10 '-5 M relative to control
Homo sapiens [9] = species on record: Homo sapiens; test: Antagonist activity at histamine receptor (unknown origin) assessed as shift in histamine-induced response at 10 '-5 M relative to control
Rattus norvegicus [10] = test: Antiulcer activity in albino rat pyloric ligation model assessed as elevation of gastric pH at 200 mg/kg, po administered as single dose 1 hr prior ligation (Rvb =1.1 no_unit); type: functional, Stomach
Rattus norvegicus [11] = test: Antiulcer activity in albino rat pyloric ligation model assessed as elevation of gastric pH at 25 mg/kg, po administered as single dose 1 hr prior ligation (Rvb =1.1 no_unit); type: functional, Stomach
Rattus norvegicus [12] = test: Antiulcer activity in albino rat pyloric ligation model assessed as inhibition of total acid output at 200 mg/kg, po administered as single dose 1 hr prior ligation relative to control; type: functional
Rattus norvegicus [13] = test: Antiulcer activity in albino rat pyloric ligation model assessed as inhibition of gastric volume at 100 mg/kg, po administered as single dose during ligation relative to control; type: functional; settings: Stomach
Rattus norvegicus [14] = test: Antiulcer activity in albino rat pyloric ligation model assessed as inhibition of total acid output at 25 mg/kg, po administered as single dose 1 hr prior ligation relative to control; type: functional
Rattus norvegicus [15] = test: Antiulcer activity in albino rat pyloric ligation model assessed as inhibition of total acid output at 100 mg/kg, po administered as single dose during ligation relative to control; type: functional
Rattus norvegicus [16] = test: Antiulcer activity in albino rat pyloric ligation model assessed as elevation of gastric pH at 100 mg/kg, po administered as single dose during prior ligation (Rvb =1.1 no_unit); type: functional, Stomach
Rattus norvegicus [17] = test: Antiulcer activity in albino rat pyloric ligation model assessed as inhibition of gastric volume at 25 mg/kg, po administered as single dose 1 hr prior ligation relative to control; type: functional; settings: Stomach
Rattus norvegicus [18] = test: Antiulcer activity in albino rat pyloric ligation model assessed as elevation of gastric pH at 100 mg/kg, po administered as single dose 24 hrs prior ligation (Rvb =1.1 no_unit); type: functional, Stomach
Canis familiaris [19] = test: Antisecretory activity in beagle dog with chronic gastric fistula assessed as inhibition of histamine-induced gastric secretion at 50 mg/kg, po measured every 15 mins post histamine treatment; type: functional, organism-based; parameters: dose 50 mg/kg; settings: Canis lupus familiaris, Stomach
Rattus norvegicus [20] = test: Antiulcer activity in albino rat pyloric ligation model assessed as inhibition of total acid output at 100 mg/kg, po administered as single dose 24 hrs prior ligation relative to control; type: functional
Rattus norvegicus [21] = test: Antiulcer activity in albino rat pyloric ligation model assessed as elevation of gastric pH at 50 mg/kg, po administered as single dose 1 hr prior ligation (Rvb =1.1 no_unit); type: functional, Stomach
Rattus norvegicus [22] = test: Antiulcer activity in albino rat pyloric ligation model assessed as inhibition of gastric volume at 100 mg/kg, po administered as single dose 24 hrs prior ligation relative to control; type: functional; settings: Stomach
Rattus norvegicus [23] = test: Antiulcer activity in albino rat pyloric ligation model assessed as inhibition of gastric volume at 50 mg/kg, po administered as single dose 1 hr prior ligation relative to control; type: functional; settings: Stomach
Rattus norvegicus [24] = test: Antiulcer activity in albino rat pyloric ligation model assessed as inhibition of total acid output at 50 mg/kg, po administered as single dose 1 hr prior ligation relative to control; type: functional
Canis familiaris [25] = test: Toxicity in beagle dog at 50 mg/kg, po; type: organism-based, Canis lupus familiaris; parameters: dose 50 mg/kg, route oral; settings: in vivo
Rattus norvegicus [26] = test: Antiulcer activity in albino rat pyloric ligation model assessed as inhibition of gastric volume at 200 mg/kg, po administered as single dose 1 hr prior ligation relative to control; type: functional; settings: Stomach
Rattus norvegicus [27] = species on record: Rattus norvegicus; test: animal or person; settings: Stomach, po, read-out: INH
Rattus norvegicus [28] = test: Antiulcer activity in albino rat pyloric ligation model assessed as elevation of gastric pH at 6.25 mg/kg, po administered as single dose during prior ligation (Rvb =1.1 no_unit); type: functional, Stomach
Rattus norvegicus [29] = species on record: Rattus norvegicus; test: animal or person; settings: po, read-out: INH

Structure (SMILES): Cc1cn(CC(N)=O)c2ccccc12
inhibition (Rattus norvegicus [1]): inactive | inhibition (Rattus norvegicus [2]): inactive

Structure (SMILES): Cc1c(C)n(CCC(N)=O)c2ccccc12
inhibition (Rattus norvegicus [1]): Active | inhibition (Rattus norvegicus [2]): Active

Structure (SMILES): CCc1c(C)c2ccccc2n1CCC(N)=O
inhibition (Rattus norvegicus [1]): inactive | inhibition (Rattus norvegicus [2]): inactive

Structure (SMILES): Cc1ccc(C)n1CCC(N)=O
inhibition (Rattus norvegicus [1]): inactive | inhibition (Rattus norvegicus [2]): inactive

Structure (SMILES): Cc1cc2ccccc2n1C
inhibition (Rattus norvegicus [1]): inactive | inhibition (Rattus norvegicus [2]): inactive

Structure (SMILES): Cc1c(C)c(C)n(CC(N)=O)c1C
inhibition (Rattus norvegicus [1]): inactive | Activity (Mus musculus): Non-toxic | Activity [3]: Non-toxic | inhibition (Rattus norvegicus [2]): inactive

Structure (SMILES): Cc1cc2ccccc2[nH]1
inhibition (Rattus norvegicus [1]): Active | inhibition (Rattus norvegicus [2]): Active

Drug excretion [4]: metabolite_detected
Structure (SMILES): Cc1[nH]c2ccccc2c1C
inhibition (Rattus norvegicus [1]): Active | Activity (Mus musculus): Non-toxic | Activity [3]: Non-toxic | inhibition (Rattus norvegicus [2]): Active

Structure (SMILES): Cc1cc2ccccc2n1CC(N)=O
inhibition (Rattus norvegicus [1]): inactive | inhibition (Rattus norvegicus [2]): inactive

Structure (SMILES): CCc1c(C)c2ccccc2n1CC(N)=O
inhibition (Rattus norvegicus [1]): inactive | inhibition (Rattus norvegicus [2]): inactive

Structure (SMILES): CCc1c(C)n(CCC(N)=O)c2ccccc12
inhibition (Rattus norvegicus [1]): inactive | inhibition (Rattus norvegicus [2]): inactive

Structure (SMILES): Cc1c(C)c(C)n(CCC(N)=O)c1C
inhibition (Rattus norvegicus [1]): inactive | inhibition (Rattus norvegicus [2]): inactive

Structure (SMILES): CN/C(=N\CCSCc1nc[nH]c1C)NC#N [CIMETIDINE]
pH (Rattus norvegicus [5]): 2.1 | inhibition in vivo at 100 mg/kg (Rattus norvegicus [6]): 37% | inhibition in vivo at 100 mg/kg (Rattus norvegicus [7]): 14%

Structure (SMILES): Cc1c[nH]c2ccccc12
inhibition (Rattus norvegicus [1]): Active | inhibition (Rattus norvegicus [2]): Active

Structure (SMILES): Cc1c(CO)n(CCC(N)=O)c2ccccc12
inhibition (Rattus norvegicus [1]): inactive | inhibition (Rattus norvegicus [2]): inactive

Structure (SMILES): Cc1c(CO)c2ccccc2n1CC(N)=O
inhibition (Rattus norvegicus [1]): inactive | inhibition (Rattus norvegicus [2]): Active

fold change (FC) (Homo sapiens [8]): 38 | fold change (FC) (Homo sapiens [9]): 11
Structure (SMILES): CNC(=S)NCCSCc1[nH]cnc1C

Structure (SMILES): Cc1cn(CCC(N)=O)c2ccccc12
inhibition (Rattus norvegicus [1]): inactive | inhibition (Rattus norvegicus [2]): inactive

Structure (SMILES): NC(=O)Cn1ccc2ccccc21
inhibition (Rattus norvegicus [1]): inactive | inhibition (Rattus norvegicus [2]): inactive

Structure (SMILES): Cc1c(C)n(CC(N)=O)c2ccccc12
pH (Rattus norvegicus [10]): 6.7 | pH (Rattus norvegicus [11]): 2.6 | inhibition (Rattus norvegicus [1]): Active | inhibition in vivo at 200 mg/kg (Rattus norvegicus [12]): 88% | inhibition in vivo at 100 mg/kg (Rattus norvegicus [13]): 32% | inhibition in vivo at 25 mg/kg (Rattus norvegicus [14]): 47% | inhibition in vivo at 100 mg/kg (Rattus norvegicus [15]): 52% | pH (Rattus norvegicus [5]): 6 | pH (Rattus norvegicus [16]): 1.5 | inhibition in vivo at 100 mg/kg (Rattus norvegicus [6]): 85% | inhibition in vivo at 100 mg/kg (Rattus norvegicus [7]): 27% | inhibition in vivo at 25 mg/kg (Rattus norvegicus [17]): 26% | pH (Rattus norvegicus [18]): 3.2 | Activity (Canis familiaris [19]): Active | inhibition in vivo at 100 mg/kg (Rattus norvegicus [20]): 69% | Activity (Mus musculus): Non-toxic | Activity [3]: Non-toxic | inhibition (Rattus norvegicus [2]): Active | pH (Rattus norvegicus [21]): 3 | inhibition in vivo at 100 mg/kg (Rattus norvegicus [22]): 44% | inhibition in vivo at 50 mg/kg (Rattus norvegicus [23]): 39% | inhibition in vivo at 50 mg/kg (Rattus norvegicus [24]): 69% | Activity (Canis familiaris [25]): Toxic | inhibition in vivo at 200 mg/kg (Rattus norvegicus [26]): 56%

Structure (SMILES): CCc1c(C)n(CC(N)=O)c2ccccc12
inhibition (Rattus norvegicus [1]): inactive | inhibition (Rattus norvegicus [2]): inactive

Structure (SMILES): Cc1c(CO)c2ccccc2n1CCC(N)=O
inhibition (Rattus norvegicus [1]): inactive | inhibition (Rattus norvegicus [2]): Active

Structure (SMILES): Cc1c(C)n(CCCC(N)=O)c2ccccc12
inhibition (Rattus norvegicus [1]): Active | inhibition (Rattus norvegicus [2]): Active

Structure (SMILES): Cc1c(CO)c2ccccc2n1CCCC(N)=O
inhibition (Rattus norvegicus [1]): inactive | inhibition (Rattus norvegicus [2]): inactive

Structure (SMILES): Cc1ccc(C)n1CC(N)=O
inhibition (Rattus norvegicus [1]): inactive | inhibition (Rattus norvegicus [2]): inactive

Structure (SMILES): c1ccc2[nH]ccc2c1
inhibition (Rattus norvegicus [1]): Active | inhibition (Rattus norvegicus [2]): Active

Structure (SMILES): CN1[C@@H]2CC[C@H]1CC(OC(=O)[C@H](CO)c1ccccc1)C2 (stereo partly drawn) [ENDO-ATROPINE]
inhibition in vivo at 6.25 mg/kg (Rattus norvegicus [27]): 43% | pH (Rattus norvegicus [28]): 1.5 | inhibition in vivo at 6.25 mg/kg (Rattus norvegicus [29]): 58%

Structure (SMILES): Cc1cc2ccccc2n1CCC(N)=O
inhibition (Rattus norvegicus [1]): inactive | inhibition (Rattus norvegicus [2]): inactive
